Test results published in US8563746B2, “Cyclic benzimidazole derivatives useful as anti-diabetic agents” (Merck Sharp & Dohme Corp, priority 2008, dated 2013).

The compounds below were run against recombinant human AMPK complex 1 (containing α1β1γ1) (Homo sapiens, UniProt Q13131+Q9Y478) (assay: In vitro AMPK activation assay ([…])). Conditions: not given.
Sequence of recombinant human AMPK complex 1 (containing α1β1γ1) (Q13131 whole entry): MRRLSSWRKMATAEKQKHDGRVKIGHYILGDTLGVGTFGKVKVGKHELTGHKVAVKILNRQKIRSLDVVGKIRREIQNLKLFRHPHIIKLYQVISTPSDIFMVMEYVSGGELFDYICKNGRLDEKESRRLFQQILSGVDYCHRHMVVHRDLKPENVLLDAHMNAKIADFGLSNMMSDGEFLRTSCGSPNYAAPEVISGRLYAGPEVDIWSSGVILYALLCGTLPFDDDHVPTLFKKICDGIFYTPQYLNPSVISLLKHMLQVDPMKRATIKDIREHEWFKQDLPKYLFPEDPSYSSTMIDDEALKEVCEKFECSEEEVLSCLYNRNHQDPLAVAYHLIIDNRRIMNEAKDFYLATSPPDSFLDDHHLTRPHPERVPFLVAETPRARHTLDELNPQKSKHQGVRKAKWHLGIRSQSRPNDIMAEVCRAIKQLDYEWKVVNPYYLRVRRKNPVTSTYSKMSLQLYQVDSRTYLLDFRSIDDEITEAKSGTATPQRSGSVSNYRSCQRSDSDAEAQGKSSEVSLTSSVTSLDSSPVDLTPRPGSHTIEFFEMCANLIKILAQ
Sequence of recombinant human AMPK complex 1 (containing α1β1γ1) (Q9Y478 whole entry): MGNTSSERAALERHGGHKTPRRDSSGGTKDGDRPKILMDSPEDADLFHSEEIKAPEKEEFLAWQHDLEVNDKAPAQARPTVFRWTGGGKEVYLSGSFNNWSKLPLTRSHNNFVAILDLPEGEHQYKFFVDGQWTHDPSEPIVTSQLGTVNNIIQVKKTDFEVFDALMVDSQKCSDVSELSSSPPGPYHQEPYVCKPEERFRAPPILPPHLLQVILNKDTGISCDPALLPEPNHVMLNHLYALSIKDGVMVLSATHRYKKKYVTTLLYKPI
Sequence of recombinant human AMPK complex 1 (containing α1β1γ1) (P54619 whole entry partner): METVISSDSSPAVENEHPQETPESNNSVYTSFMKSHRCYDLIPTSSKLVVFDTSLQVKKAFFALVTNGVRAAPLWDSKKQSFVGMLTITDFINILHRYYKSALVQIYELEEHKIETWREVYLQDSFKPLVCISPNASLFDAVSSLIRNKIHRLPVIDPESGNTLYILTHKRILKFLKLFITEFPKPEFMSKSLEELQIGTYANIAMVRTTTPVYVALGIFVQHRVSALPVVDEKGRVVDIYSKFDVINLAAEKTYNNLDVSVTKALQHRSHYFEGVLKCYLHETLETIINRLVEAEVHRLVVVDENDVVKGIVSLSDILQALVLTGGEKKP
Assay type: biochemical
Experimental: The recombinant human AMPK complex 1 (containing α1β1γ1) was obtained from baculovirus expression system. Recombinant viruses were generated by cotransfection of AMPK/pBacPak9 clones with Baculogold baculovirus DNA (Pharmingen) in spodoptera frugiperda 21 cells according to the manufacturer's instructions. Each round of virus amplification was performed for 5 days in Grace's medium containing 10% serum. Virus that had been subjected to three rounds of amplification was used for all protein production procedures. To express the AMPK complex, sf21 cells were adapted to serum free medium (SF900 II, Invitrogen) by sequential dilution from serum containing stocks into SF900II medium and maintained in shaker flasks at 90 rpm at 27° C. The recombinant AMPK enzyme complex was produced by triple infection, one recombinant virus for each of the subunits, in sf21 cells under serum free conditions. Cells were infected in log phase, 1×10^6 cells/ml, at a multiplicity of infection of ˜5. Cells were harvested by centrifugation at 10,000×g for 15 minutes after 72 hours of infection with viruses. The insect cell pellet from 2 liters of culture was resuspended in 50 ml lysis buffer (20 mM Tris-HCl, 50 mM NaCl, 50 mM NaF, 30 mM Na PPi, 0.25 M sucrose, 10 mM ZnCl2, 2 mM DTT, 0.4 mg/ml digitonin) and subjected to two cycles of freeze-thaw lysis in a dry-ice ethanol bath. Insoluble material was removed by centrifugation at 10,000×g and the supernatant was fractionated with use of polyethylene glycol (PEG). The protein fraction precipitating between 2.5 and 6% PEG was used for further purification using a Blue-Sepharose step (Zhou et al, J. Clin. Invest. 108, 1167-1174, 2001).
The total in vitro AMPK activation assay volume is 50 μl in a 96-well plate. The reaction mixture contained 100 μM ATP (0.5 μCi ^33P-ATP per reaction), and 50 μM SAMS ([…]) in a buffer (20 mM HEPES, pH 7.0, 5 mM MgCl2, 0.01% Brij35). The reaction was initiated with addition of the enzyme. After 30-minute incubation at 30° C., the reaction was stopped by addition of 80 μl 1% H3PO4. Aliquots (100 μl) were transferred to 96-well MultiScreen plates (MAPHNOB50; Millipore Corp., Bedford, Mass., USA). The plate was washed three times with 1% H3PO4 followed by detection in a Top-count. The counts per minute from the basal activity (the reaction without activator) was subtracted from each well and the data were expressed as % maximum AMP activation followed by EC50 calculation.
For `O=C(O)CSc1nc2cc(C#Cc3ccccc3)c(Cl)cc2[nH]1` [Example 1, (6-Chloro-5-phenylethynyl-1H-benzoimidazol-2-ylsulfanyl)-acetic acid], the EC50 was 259 nM.
In the case of `O=C(O)CSc1nc2cc(-c3ccc(-c4ccccc4)cc3)c(Cl)cc2[nH]1` [Example 2, (5-Biphenyl-4-yl-6-chloro-1H-benzoimidazol-2-ylsulfanyl)-acetic acid], the EC50 is reported as 90 nM.

Same assay, conditions: recombinant human AMPK complex 1 (α1β1γ1); basal activity subtracted, expressed as % maximum AMP activation
With `O=C(O)CSc1nc2cc(-c3ccc4c(c3)OCO4)c(Cl)cc2[nH]1` [Example 3, (5-1,3-benzo-dioxol-5-yl-6-chloro-1H-benzimidazol-2-ylsulfanyl)-acetic acid] the Emax was > 40%.
With `O=C(O)CSc1nc2cc(-c3cccc(F)c3)c(Cl)cc2[nH]1` [Example 4, [6-chloro-5-(3-fluoro-phenyl)-1H-benzimidazol-2-ylsulfanyl]-acetic acid] the Emax was > 40%.
For `O=C(O)CSc1nc2cc(-c3cc(F)cc(F)c3)c(Cl)cc2[nH]1` [Example 5, [6-chloro-5-(3,5-difluoro-phenyl)-1H-benzimidazol-2-ylsulfanyl]-acetic acid], the Emax was > 40%.
`CC(=O)NCc1ccc(-c2cc3nc(SCC(=O)O)[nH]c3cc2Cl)cc1` [Example 7, 2-(6-(4-(acetamido-methyl)phenyl)-5-chloro-1H-benzo[d]-imidazol-2-ylthio)-acetic acid] was tested, and the Emax was > 40%.
With `O=C(O)CSc1nc2cc(-c3ccc(O)cc3)c(Cl)cc2[nH]1` [Example 8, 2-(6-chloro-5-(4-hydroxyphenyl)-1H-benzo[d]imidazol-2-ylthio)acetic acid] the Emax was > 40%.
`O=C(O)CSc1nc2cc(-c3ccc(CO)cc3)c(Cl)cc2[nH]1` [Example 9, 2-(6-chloro-5-(4-(hydroxymethyl)phenyl)-1H-benzo[d]-imidazol-2-ylthio)-acetic acid] was tested, and the Emax was > 40%.
For `Nc1ccccc1C#Cc1cc2nc(SCC(=O)O)[nH]c2cc1Cl` [Example 10, 2-(5-((2-amino-phenyl)ethynyl)-6-chloro-1H-benzo[d]-imidazol-2-ylthio)-acetic acid], the Emax was > 40%.
`O=C(O)CSc1nc2cc(-c3ccc4cn[nH]c4c3)c(Cl)cc2[nH]1` [Example 11, 2-(6-chloro-5-(1H-indazol-6-yl)-1H-benzo[d]imidazol-2-ylthio)acetic acid] was tested, and the Emax was > 40%.
With `COc1ccc(-c2cc3nc(SCC(=O)O)[nH]c3cc2Cl)cn1` [Example 12, 2-(6-chloro-5-(6-methoxypyridin-3-yl)-1H-benzo[d]imidazol-2-ylthio)acetic acid] the Emax was > 40%.
For `O=C(O)CSc1nc2cc(-c3cc4ccccc4o3)c(Cl)cc2[nH]1` [Example 13, 2-(5-(benzofuran-2-yl)-6-chloro-1H-benzo[d]imidazol-2-ylthio)acetic acid], the Emax was > 40%.
For `O=C(O)CSc1nc2cc(-c3csc4ccccc34)c(Cl)cc2[nH]1` [Example 14, 2-(5-(benzo[b]-thiophen-3-yl)-6-chloro-1H-benzo[d]-imidazol-2-ylthio)-acetic acid], the Emax was > 40%.
With `O=C(O)CSc1nc2cc(-c3ccc(-n4cccn4)cc3)c(Cl)cc2[nH]1` [Example 15, 2-(5-(4-(1H-pyrazol-1-yl)phenyl)-6-chloro-1H-benzo[d]imidazol-2-ylthio)acetic acid] the Emax was > 40%.
With `O=C(O)CSc1nc2cc(-c3ccc(-c4ccn[nH]4)cc3)c(Cl)cc2[nH]1` [Example 16, 2-(5-(4-(1H-pyrazol-5-yl)phenyl)-6-chloro-1H-benzo[d]imidazol-2-ylthio)acetic acid] the Emax was > 40%.
With `CC(=O)Nc1cccc(C#Cc2cc3nc(SCC(=O)O)[nH]c3cc2Cl)c1` [Example 17, 2-(5-((3-acetamido-phenyl)ethynyl)-6-chloro-1H-benzo[d]-imidazol-2-ylthio)-acetic acid] the Emax was > 40%.

Same assay, conditions: recombinant human AMPK complex 1 (α1β1γ1); read-out: EC50
For `O=C(O)CSc1nc2cc(-c3ccc(-c4ccccc4O)cc3)c(Cl)cc2[nH]1` [Example 6, 2-(6-chloro-5-(2′-hydroxybiphenyl-4-yl)-1H-benzo[d]imidazol-2-ylthio)acetic acid], the EC50 was 13 nM.
